From patent publication US9975888B2, “Aryl linked imidazole and triazole derivatives and methods of use thereof for improving the pharmacokinetics of a drug” (MERCK SHARP & DOHME CORP., priority 2013, dated 2018)

Legend:
Assay type in all cases: biochemical
[1] = biological target: T1, CYP3A4 (Homo sapiens, UniProt P08684); experiment: IC50 vs CYP3A by inhibition of lopinavir metabolism in human liver microsomes; design: 0.01 mg/mL protein human liver microsomes (BD Gentest); tissue BD Gentest; host or cells: human liver microsomes; details: 1.5 μM lopinavir, 0.01 mg/mL human liver microsomes, 8 min at 37° C.; read-out: CYP IC50 (nM) 3A4 (LPV)
Summary of the method: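 Human liver microsomes (0.01 mg/mL) with 1.5 μM lopinavir, 1 mM NADPH, 3.3 mM MgCl2 in 100 mM potassium phosphate pH 7.4, 8 min at 37 °C, six compound concentrations. Summed M2/M3/M4 hydroxy metabolites quantified by LC/MS/MS against tolbutamide; % inhibition normalised between no-inhibitor and 5 μM ketoconazole controls, IC50 by non-linear regression.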
Target sequence in this assay (P08684 2-503): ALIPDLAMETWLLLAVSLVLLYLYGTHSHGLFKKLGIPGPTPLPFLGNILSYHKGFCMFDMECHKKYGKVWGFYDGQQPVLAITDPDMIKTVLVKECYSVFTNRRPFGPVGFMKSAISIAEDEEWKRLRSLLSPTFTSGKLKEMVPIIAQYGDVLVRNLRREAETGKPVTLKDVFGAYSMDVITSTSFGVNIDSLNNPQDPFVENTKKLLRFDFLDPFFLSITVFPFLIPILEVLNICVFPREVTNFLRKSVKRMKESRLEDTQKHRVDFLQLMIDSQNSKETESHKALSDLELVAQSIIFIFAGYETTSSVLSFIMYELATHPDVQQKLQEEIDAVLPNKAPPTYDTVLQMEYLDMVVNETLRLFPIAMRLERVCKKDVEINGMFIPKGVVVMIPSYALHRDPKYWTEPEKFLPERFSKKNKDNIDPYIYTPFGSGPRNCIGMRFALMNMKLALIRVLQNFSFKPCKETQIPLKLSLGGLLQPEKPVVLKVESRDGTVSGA

[2] = biological target: T2, CYP2C19 (Homo sapiens, UniProt P33261); experiment: Cocktail assay for CYPs, mephenytoin 4′-hydroxylation (CYP2C19), human liver microsomes; details: 30 μM mephenytoin, 0.1 mg/mL human liver microsomes, 10 min at 37° C.; read-out: CYP IC50 (nM) 2C19
T2 construct: 0.1 mg/mL protein human liver microsomes (BD Gentest); tissue BD Gentest; host or cells: human liver microsomes
T2 sequence (P33261 whole entry): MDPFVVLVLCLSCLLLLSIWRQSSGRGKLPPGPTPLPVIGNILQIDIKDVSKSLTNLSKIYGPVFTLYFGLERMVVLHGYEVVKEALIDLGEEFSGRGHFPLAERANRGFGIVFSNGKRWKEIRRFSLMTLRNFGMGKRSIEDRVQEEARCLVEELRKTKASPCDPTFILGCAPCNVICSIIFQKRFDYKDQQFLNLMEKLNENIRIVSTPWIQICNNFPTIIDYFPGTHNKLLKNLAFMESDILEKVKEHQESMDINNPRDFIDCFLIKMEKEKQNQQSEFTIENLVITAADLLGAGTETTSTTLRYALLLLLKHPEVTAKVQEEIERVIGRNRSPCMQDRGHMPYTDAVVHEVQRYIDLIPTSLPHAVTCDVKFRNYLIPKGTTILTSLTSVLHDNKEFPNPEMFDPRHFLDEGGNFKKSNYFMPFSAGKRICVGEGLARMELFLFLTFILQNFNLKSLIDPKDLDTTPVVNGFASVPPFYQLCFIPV
Summary of the method: (§1)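 Pooled human liver microsomes (0.1 mg/mL) with probe cocktail incl. 5 μM diclofenac (CYP2C9) and 30 μM mephenytoin (CYP2C19), 1 mM NADPH, pH 7.4 phosphate buffer, 10 min at 37° C. Metabolites quantified by LC/MS/MS against internal standard; % inhibition versus no-inhibitor control, IC50 by non-linear regression.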

[3] = biological target: T3, CYP2C9 (Homo sapiens, UniProt P11712); experiment: Cocktail assay for CYPs, diclofenac 4′-hydroxylation (CYP2C9), human liver microsomes; details: 5 μM diclofenac, 0.1 mg/mL human liver microsomes, 10 min at 37° C.; read-out: CYP IC50 (nM) 2C9
T3 construct: 0.1 mg/mL protein human liver microsomes (BD Gentest); tissue BD Gentest; host or cells: human liver microsomes
T3 sequence (P11712 whole entry): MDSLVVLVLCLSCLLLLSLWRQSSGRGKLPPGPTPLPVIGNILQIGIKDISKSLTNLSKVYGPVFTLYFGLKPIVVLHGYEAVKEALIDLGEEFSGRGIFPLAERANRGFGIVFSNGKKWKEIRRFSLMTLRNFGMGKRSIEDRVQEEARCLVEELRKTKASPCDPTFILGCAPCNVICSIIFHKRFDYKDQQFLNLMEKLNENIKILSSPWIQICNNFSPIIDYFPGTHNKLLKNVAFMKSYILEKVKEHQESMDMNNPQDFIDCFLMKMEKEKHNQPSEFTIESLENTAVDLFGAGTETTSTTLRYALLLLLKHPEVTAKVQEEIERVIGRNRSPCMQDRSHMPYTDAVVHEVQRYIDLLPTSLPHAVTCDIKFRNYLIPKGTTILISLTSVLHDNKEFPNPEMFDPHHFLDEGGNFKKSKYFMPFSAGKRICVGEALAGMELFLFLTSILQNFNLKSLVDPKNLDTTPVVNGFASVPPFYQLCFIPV
Summary of the method: as §1

[4] = biological target: T4, CYP1A2 (Homo sapiens, UniProt P05177); experiment: Cocktail assay for CYPs, phenacetin O-deethylation (CYP1A2), human liver microsomes; details: 10 μM phenacetin, 0.1 mg/mL human liver microsomes, 10 min at 37° C.; read-out: CYP IC50 (nM) 1A2
T4 construct: 0.1 mg/mL protein human liver microsomes (BD Gentest); tissue BD Gentest; host or cells: human liver microsomes
T4 sequence (P05177 1-516): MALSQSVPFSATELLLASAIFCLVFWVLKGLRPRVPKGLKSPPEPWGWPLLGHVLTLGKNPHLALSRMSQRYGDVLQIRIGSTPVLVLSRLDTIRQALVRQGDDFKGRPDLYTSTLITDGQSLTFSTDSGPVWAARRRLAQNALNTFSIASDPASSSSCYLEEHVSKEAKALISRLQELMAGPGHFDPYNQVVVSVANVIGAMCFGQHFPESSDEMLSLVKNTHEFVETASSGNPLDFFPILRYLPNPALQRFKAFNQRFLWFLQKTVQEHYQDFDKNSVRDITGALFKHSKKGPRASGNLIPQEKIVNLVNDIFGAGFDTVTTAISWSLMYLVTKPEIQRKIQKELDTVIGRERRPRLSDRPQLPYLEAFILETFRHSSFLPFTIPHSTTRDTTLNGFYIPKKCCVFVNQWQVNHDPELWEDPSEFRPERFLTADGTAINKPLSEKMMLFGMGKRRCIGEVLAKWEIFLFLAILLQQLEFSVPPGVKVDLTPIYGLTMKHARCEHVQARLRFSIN
Summary of the method: (§2)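 Pooled human liver microsomes (0.1 mg/mL) with a probe cocktail of 10 μM phenacetin, 5 μM dextromethorphan and 2 μM midazolam plus NADPH, pH 7.4, 10 min at 37° C. Each metabolite was quantified by LC/MS/MS against a tolbutamide internal standard. IC50 came from % inhibition at 6 concentrations (e.g. 0.0032–10 μM) by non-linear regression.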

[5] = biological target: T1, CYP3A4; experiment: Cocktail assay for CYPs, midazolam 1′-hydroxylation (CYP3A4), human liver microsomes; design: 0.1 mg/mL protein human liver microsomes (BD Gentest); tissue BD Gentest; host or cells: human liver microsomes; details: 2 μM midazolam, 0.1 mg/mL human liver microsomes, 10 min at 37° C.; read-out: CYP IC50 (nM) 3A4 (MDZ)
Summary of the method: as §2
Target sequence in this assay (P08684 whole entry): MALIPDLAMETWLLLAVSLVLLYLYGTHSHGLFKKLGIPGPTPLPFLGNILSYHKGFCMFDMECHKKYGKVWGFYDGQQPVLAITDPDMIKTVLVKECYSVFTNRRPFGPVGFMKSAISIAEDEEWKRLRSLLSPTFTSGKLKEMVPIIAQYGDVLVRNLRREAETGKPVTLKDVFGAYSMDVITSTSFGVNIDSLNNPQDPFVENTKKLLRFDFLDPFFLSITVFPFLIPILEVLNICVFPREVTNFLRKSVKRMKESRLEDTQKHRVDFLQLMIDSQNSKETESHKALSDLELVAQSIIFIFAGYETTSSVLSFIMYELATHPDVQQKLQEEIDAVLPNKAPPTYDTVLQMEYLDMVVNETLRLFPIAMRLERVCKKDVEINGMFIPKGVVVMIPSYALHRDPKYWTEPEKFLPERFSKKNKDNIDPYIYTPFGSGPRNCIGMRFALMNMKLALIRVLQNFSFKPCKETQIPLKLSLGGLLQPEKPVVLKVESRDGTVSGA

[6] = biological target: T5, CYP2D6 (Homo sapiens, UniProt P10635); experiment: Cocktail assay for CYPs, dextromethorphan O-demethylation (CYP2D6), human liver microsomes; details: 5 μM dextromethorphan, 0.1 mg/mL human liver microsomes, 10 min at 37° C.; read-out: CYP IC50 (nM) 2D6
T5 construct: 0.1 mg/mL protein human liver microsomes (BD Gentest); tissue BD Gentest; host or cells: human liver microsomes
T5 sequence (P10635 whole entry): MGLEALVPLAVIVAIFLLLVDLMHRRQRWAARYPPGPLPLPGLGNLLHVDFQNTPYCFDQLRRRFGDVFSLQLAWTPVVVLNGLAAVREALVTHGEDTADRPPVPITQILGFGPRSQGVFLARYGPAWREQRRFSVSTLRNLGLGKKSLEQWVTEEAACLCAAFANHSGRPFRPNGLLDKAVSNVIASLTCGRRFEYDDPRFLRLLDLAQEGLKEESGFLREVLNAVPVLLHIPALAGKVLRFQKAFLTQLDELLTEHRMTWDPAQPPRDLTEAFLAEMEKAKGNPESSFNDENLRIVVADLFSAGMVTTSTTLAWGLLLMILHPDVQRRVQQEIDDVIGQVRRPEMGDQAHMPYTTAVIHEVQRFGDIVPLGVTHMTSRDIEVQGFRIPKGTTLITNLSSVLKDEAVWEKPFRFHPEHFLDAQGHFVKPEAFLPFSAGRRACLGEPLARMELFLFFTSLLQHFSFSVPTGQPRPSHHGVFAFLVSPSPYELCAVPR
Summary of the method: as §2

| Compound | IC50 [1] | IC50 [2] | IC50 [3] | IC50 [4] | IC50 [5] | IC50 [6] |
| --- | --- | --- | --- | --- | --- | --- |
| C[C@H](c1ccc(F)cc1)n1cncc1-c1cccc2c1CCN(S(=O)(=O)c1cnc(N3CCN4C[C@H](O)C[C@H]4C3)s1)C2 [Compound 63, (7R,8aS)-2-(5-((5-(1-((R)-1-(4-fluorophenyl)ethyl)-1H-imidazol-5-yl)-3,4-dihydroisoquinolin-2(1H)-yl)sulfonyl)thiazol-2-yl)octahydropyrrolo[1,2-a]pyrazin-7-ol] | 5 nM | 2610 nM | 4950 nM | 2500 nM | 7.5 nM | 3680 nM |
| O=S(=O)(c1cnc(N2CCN3C[C@H](O)C[C@H]3C2)s1)N1CCc2c(cccc2-c2cncn2CCc2ccc(F)cc2)C1 [Compound 64, (7R,8aS)-2-(5-((5-(1-(4-fluorophenethyl)-1H-imidazol-5-yl)-3,4-dihydroisoquinolin-2(1H)-yl)sulfonyl)thiazol-2-yl)octahydro-pyrrolo[1,2-a] pyrazin-7-ol] | 1.6 nM | 4230 nM | 3550 nM | > 10000 nM | 4.7 nM | 3130 nM |
| O=S(=O)(c1cnc(N2CCN3C[C@H](O)C[C@H]3C2)s1)N1CCc2cccc(-c3cncn3CCc3ccc(F)cc3)c2C1 [Compound 65, (7R,8aS)-2-(5-((8-(1-(4-fluorophenethyl)-1H-imidazol-5-yl)-3,4-dihydroisoquinolin-2(1H)-yl)sulfonyl)thiazol-2-yl)octahydropyrrolo[1,2-a]pyrazin-7-ol] | 8.9 nM | 9230 nM | 1260 nM | > 10000 nM | 18.5 nM | 4900 nM |

Now from value to molecule:

| IC50 [1] | IC50 [2] | IC50 [3] | IC50 [4] | IC50 [5] | IC50 [6] | Compound |
| --- | --- | --- | --- | --- | --- | --- |
| 23.8 nM | > 10000 nM | > 10000 nM | 2680 nM | 22.4 nM | > 10000 nM | CN1CCN(c2ncc(S(=O)(=O)N3CCc4c(-c5cncn5CCc5ccc(F)cc5)ccnc4C3)s2)CC1 [Compound 66, 5-((4-(1-(4-fluorophenethyl)-1H-imidazol-5-yl)-5,6-dihydro-1,7-naphthyridin-7(8H)-yl)sulfonyl)-2-(4-methylpiperazin-1-yl)thiazole] |
| > 100 nM | > 10000 nM | > 10000 nM | > 10000 nM | 123 nM | 6510 nM | CN1CCN(c2ncc(S(=O)(=O)N3CCc4c(ncnc4-c4cncn4CCc4ccc(F)cc4)C3)s2)CC1 [Compound 67, 5-((4-(1-(4-fluorophenethyl)-1H-imidazol-5-yl)-5,6-dihydropyrido[3,4-d]pyrimidin-7(8H)-yl)sulfonyl)-2-(4-methylpiperazin-1-yl)thiazole] |
